The term melting point denotes the temperature, or range, at which the solid turns liquid. By solubility is commonly meant the dissolved amount per volume that the medium holds. Read a low solubility as little dissolved substance.

Two compounds from patent US20230122463A1, “ORGANIC FINE PARTICLE” (DAIKIN INDUSTRIES, LTD., priority 2020, published 2023) can be followed below.

Data set [1] can be described thus: Water contact angle of polymer (spin-coated film, static contact angle). The data set is classed as physicochemical. The following applies: homopolymer of the monomer; silicon wafer spin-coated with 1.0% chloroform solution; 2 µL water, 1 minute after the droplet reached the film. The procedure:
For the water contact angle of the polymer, a silicon wafer substrate was spin-coated with a chloroform solution of the resulting polymer with a solid concentration of 1.0% and the static water contact angle was measured. The static contact angle was obtained by dropping 2 µL of water on a coating film and measuring the contact angle 1 minute after the droplet reached the film.

Data set [2] in a line: Solubility in water of polymer and of monomer. The data set is classed as physicochemical. The following applies: thermodynamic from solid. The procedure: For the solubility in water of the monomers, the respective monomers were added in small batches to a predetermined amount of water, and the solubility in water was determined from the amount of dissolution when no more monomer could be dissolved (floating, precipitation or deposition occurred, or the solution became clouded).

Structures are written as SMILES. A value given as a limit tells only on which side of the number the result lay.

Consider `C=C(C)C(=O)OCC(CC)CCCC` (stereo not shown) [EHMA, 2-ethyhexyl methacrylate], for which the “Water contact angle of homopolymer” value in data set [1] is recorded as 97 °.
As to `C=CC(=O)OCCCCCCCCCCCCCCCCCC` [SA, stearyl acrylate], the melting point was determined as 50 °C. Further, the “Water contact angle of homopolymer” value in data set [1] turned out to be 102 °. Further, in data set [2], the solubility was < 100 µg/mL.
